Test results from patent US20150164916A1, “ROFLUMILAST COMPOSITIONS FOR THE TREATMENT OF COPD” (Forest Laboratories Holdings Ltd., priority 2012, published 2015).

How the values were obtained:
IL-8 release = assay: LPS- or CSE-induced IL-8 release in isolated peripheral blood neutrophils (ELISA); type: cell-based, human; conditions: 6 h
Protocol: (§1) Neutrophils and monocytes were isolated from peripheral venous blood by standard laboratory procedures. In brief, peripheral venous blood was mixed with dextran 500 at 3% (in 0.9% saline) in a proportion of 2:1. This mixture was incubated at room temperature for 30 min until erythrocytes were sedimented. The upper phase was carefully collected and added on Ficoll-Paque Histopaque 1077 (Amershan Pharmacia Biotech, Barcelona, Spain) density gradient in a proportion of 3:1. The two phases generated were centrifuged at 150 g, 4° C. for 30 min. Thus, the interface was collected to isolate monocytes, and the pellet obtained (which is consisted a mixture of neutrophils and low proportion of residual erythrocytes and traces of eosinophils and basophils) was resuspended in an erythrocyte lysis buffer (Biolegend, UK) for 5 min in ice. Cell suspension was washed two times with phosphate buffer (PBS).
CSE was prepared as previously outlined (Milara et al.; Ortiz et al.). Briefly, the smoke of a research cigarette (2R4F; Tobacco Health Research, University of Kentucky, KY, USA) was generated by a respiratory pump (Apparatus Rodent Respirator 680; Harvard, Germany) through a puffing mechanism related to the human smoking pattern (3 puff/min; 1 puff 35 ml; each puff of 2 s duration with 0.5 cm above the filter) and was bubbled into a flask containing 25 ml of pre-warmed (37° C.) RPMI 1640 culture medium supplemented as describe above. The CSE solution was sterilized by filtration through a 0.22-μm cellulose acetate sterilizing system (Corning, N.Y.). The resultant CSE solution was considered to be 100% CSE and was used for experiments within 30 min of preparation. CSE 10% corresponds approximately to the exposure associated with smoking two packs per day (Su et al., 1998). The quality of the prepared CSE solution was assessed based on the absorbance at 320 nm, which is the specific absorption wavelength of peroxynitrite. Stock solutions with an absorbance value of 3.0±0.1 were used. To test for cytotoxicity from CSE, isolated neutrophils and monocytes were treated with CSE concentrations of up to 5% for 24.
(§2) Peripheral neutrophil cell suspension was adjusted to 500×10^3 cells per well in 24-well plates and incubated in RPMI culture medium for 1 h into the incubator at 37° C., 5% CO2. […] Both the stimulus and drug were remained together for 6 h. Supernatants were collected and centrifuged at 120 g for 5 min, and the free-cell supernatant was used to measure IL-8, MMP-9, IL-1β, GM-CSF and CCL-5.
(§3) IL-8 was determined by using commercially available enzyme-linked immunosorbent assay kit for IL-8 (R&D Systems, UK) according to the manufacturer's protocol. MMP-9, IL-1β, GM-CSF and CCL-5 were measured by LUMINEX technology according to the manufacturer's protocol.
(§4) Data were presented as mean±SEM. IC50 values were calculated for each drug and their combinations. Statistical analysis of results was carried out by analysis of variance (ANOVA) followed by Bonferroni test, by Student's t test, or by non-parametric tests as appropriate (GraphPad Software Inc, San Diego, Calif., USA). Significance was accepted when P<0.05. For clinical correlations of lung function and gene expression from neutrophils the non-parametric Spearman correlation analysis was carried out.

IL-1β release = assay: LPS-induced IL-1β release in isolated peripheral blood neutrophils (LUMINEX); type: cell-based, human; conditions: LPS (1 μg/ml), 6 h
Protocol: as §1, §2, §3, §4

[1] = CSE 5%, neutrophils from COPD patients
[2] = CSE 5%, neutrophils from HEALTHY
[3] = LPS (1 μg/ml), neutrophils from COPD patients
[4] = LPS (1 μg/ml), neutrophils from HEALTHY

-log IC50, inhibition of IL-8 release (IL-8 release; [1]): 7.92 ± 0.1
-log IC50, inhibition of IL-8 release (IL-8 release; [3]): 7.44 ± 0.24
-log IC50, inhibition of IL-1β release (IL-1β release; neutrophils from COPD patients): 7.82 ± 0.21
Compound: O=C(Nc1c(Cl)c[n+]([O-])cc1Cl)c1ccc(OC(F)F)c(OCC2CC2)c1 [RNO, roflumilast N-oxide]
Maximal % Inhibition of IL-8 release (IL-8 release; [1]): 88.9 ± 5.62%
-log IC50, inhibition of IL-8 release (IL-8 release; [2]): 7.95 ± 0.12
Maximal % Inhibition of IL-8 release (IL-8 release; [2]): 90.4 ± 5.4%
Maximal % Inhibition of IL-8 release (IL-8 release; [3]): 48.70 ± 5.18%
-log IC50, inhibition of IL-8 release (IL-8 release; [4]): 7.46 ± 0.26
Maximal % Inhibition of IL-8 release (IL-8 release; [4]): 40.50 ± 4.55%
Maximal % Inhibition of IL-1β release (IL-1β release; neutrophils from COPD patients): 66.69 ± 6.86%
-log IC50, inhibition of IL-1β release (IL-1β release; neutrophils from HEALTHY): 7.73 ± 0.22
Maximal % Inhibition of IL-1β release (IL-1β release; neutrophils from HEALTHY): 67.08 ± 6.63%
